The values that follow are results of earlier work, collected in patent US6846831B2, “Method of treating the syndrome of lipodystrophy” (CPD, LLC, priority 2000, dated 2005).

For one data set, the target named is μ opioid receptor (Rattus norvegicus, UniProt P33535). The note with it: read-out: μ IC50; homogenates of rat brain minus cerebellum; prototype ligand DHM.
The target in another data set is δ opioid receptor (Rattus norvegicus, UniProt P33533). The note with it: read-out: δ IC50; homogenates of rat brain minus cerebellum; prototype ligand DADLE.
For another data set, the target named is κ opioid receptor (Rattus norvegicus, UniProt P34975). To be noted: read-out: κ IC50; homogenates of rat brain minus cerebellum; prototype ligand EKC.
Chain of κ opioid receptor (P34975 whole entry): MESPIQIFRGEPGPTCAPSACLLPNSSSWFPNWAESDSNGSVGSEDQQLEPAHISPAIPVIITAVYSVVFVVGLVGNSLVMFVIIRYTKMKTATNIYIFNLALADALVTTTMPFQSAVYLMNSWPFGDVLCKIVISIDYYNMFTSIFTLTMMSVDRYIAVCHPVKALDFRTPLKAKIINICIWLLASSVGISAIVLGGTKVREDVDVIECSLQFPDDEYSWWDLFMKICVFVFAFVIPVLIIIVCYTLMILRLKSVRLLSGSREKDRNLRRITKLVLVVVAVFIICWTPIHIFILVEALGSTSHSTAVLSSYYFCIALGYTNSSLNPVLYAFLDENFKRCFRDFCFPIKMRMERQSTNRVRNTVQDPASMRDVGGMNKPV

Chain of μ opioid receptor (P33535 whole entry): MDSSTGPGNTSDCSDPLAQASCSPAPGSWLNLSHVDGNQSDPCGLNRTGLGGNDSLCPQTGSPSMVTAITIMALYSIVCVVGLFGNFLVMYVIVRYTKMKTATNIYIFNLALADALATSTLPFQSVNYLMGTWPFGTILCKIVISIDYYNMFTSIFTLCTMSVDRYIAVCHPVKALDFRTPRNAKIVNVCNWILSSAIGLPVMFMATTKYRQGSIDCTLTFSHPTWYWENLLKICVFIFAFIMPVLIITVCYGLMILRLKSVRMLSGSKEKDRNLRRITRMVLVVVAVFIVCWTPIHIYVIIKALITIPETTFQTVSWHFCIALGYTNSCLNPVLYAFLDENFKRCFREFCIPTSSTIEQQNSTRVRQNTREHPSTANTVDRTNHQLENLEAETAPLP
Chain of δ opioid receptor (P33533 whole entry): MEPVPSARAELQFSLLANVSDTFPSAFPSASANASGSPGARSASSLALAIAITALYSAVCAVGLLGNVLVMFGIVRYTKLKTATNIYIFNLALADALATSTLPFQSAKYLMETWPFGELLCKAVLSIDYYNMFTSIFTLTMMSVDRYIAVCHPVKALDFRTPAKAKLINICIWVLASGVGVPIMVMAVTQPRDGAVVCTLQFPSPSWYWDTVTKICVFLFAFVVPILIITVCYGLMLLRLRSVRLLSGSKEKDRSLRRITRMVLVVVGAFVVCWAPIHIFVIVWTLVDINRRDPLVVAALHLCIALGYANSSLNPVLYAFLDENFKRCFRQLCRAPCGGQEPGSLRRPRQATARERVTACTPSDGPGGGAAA

The IC50 is the concentration that gives 50% inhibition. Regarding `C=C1CC[C@@]2(O)[C@H]3Cc4ccc(O)c5c4[C@@]2(CCN3CC2CC2)[C@H]1O5` [Nalmefene], the values for the IC50 at μ opioid receptor, on δ opioid receptor and at κ opioid receptor were 1 nM, 6.1 nM and 5.3 nM, respectively.
